According to ChEMBL document CHEMBL5550148, “Systematic alanine and stapling mutational analysis of antimicrobial peptide Chem-KVL” (Bioorg Med Chem Lett, 2024):
Values after ≈ are worked out from the molar mass of the structure shown. Bridge positions count the residues as written; N and C are the ends. Square brackets hold non-standard residues; d marks the D form. Peptide text beside a SMILES is read from it. S5 = C=CCCC[C@](C)(N)C(=O)O

Key:
Klebsiella pneumoniae = test: Antibacterial activity against Klebsiella pneumoniae ATCC 13883 assessed as inhibition of bacterial growth; type: functional
Staphylococcus aureus [1] = test: Antibacterial activity against Staphylococcus aureus ATCC 25923 assessed as inhibition of bacterial growth; type: functional
Pseudomonas aeruginosa [2] = test: Potency index, ratio of Chem-KVL MIC to test compound MIC for antibacterial activity against Pseudomonas aeruginosa ATCC 27853; type: functional
Escherichia coli [3] = test: Antibacterial activity against Escherichia coli ATCC 25922 assessed as inhibition of bacterial growth; type: functional
Pseudomonas aeruginosa [4] = test: Antibacterial activity against Pseudomonas aeruginosa ATCC 27853 assessed as inhibition of bacterial growth; type: functional
Escherichia coli [5] = test: Potency index, ratio of Chem-KVL MIC to test compound MIC for antibacterial activity against Escherichia coli ATCC 25922; type: functional
[6] = Retention time of compound by HPLC analysis; type: physicochemical
Acinetobacter baumannii = test: Antibacterial activity against Acinetobacter baumannii ATCC 17978 assessed as inhibition of bacterial growth; type: functional
Staphylococcus aureus [7] = test: Potency index, ratio of Chem-KVL MIC to test compound MIC for antibacterial activity against Staphylococcus aureus ATCC 25923; type: functional
Salmonella typhimurium = test: Antibacterial activity against Salmonella typhimurium clinical isolate assessed as inhibition of bacterial growth; type: functional, Salmonella enterica subsp. enterica serovar Typhimurium; conditions: Salmonella enterica
[8] = Cytotoxicity against mouse RAW264.7 cells; type: toxicity, cell-based
chymotrypsin [9] = target: T1, chymotrypsin (Homo sapiens, UniProt P17538+P40313+Q6GPI1+Q99895); test: Proteolytic stability of compound assessed as chymotrypsin (unknown origin) mediated drug degradation measured within 4 hrs by HPLC analysis; type: ADME, protein assay; conditions: read-out: Drug degradation
chymotrypsin [10] = target: T1, chymotrypsin; test: Proteolytic stability of compound assessed as chymotrypsin (unknown origin) mediated drug degradation by measuring compound remaining after 4 hrs by HPLC analysis; type: ADME, protein assay; conditions: read-out: Stability

Row | MIC (Klebsiella pneumoniae) [µg/mL] | MIC (Staphylococcus aureus [1]) [µg/mL] | MIC (Escherichia coli [3]) [µg/mL] | MIC (Pseudomonas aeruginosa [4]) [µg/mL] | Time [6] [min] | MIC (Acinetobacter baumannii) [µg/mL] | MIC (Salmonella typhimurium) [µg/mL] | metabolised at 4 h (chymotrypsin [9]) [%] | remaining at 4 h (chymotrypsin [10]) [%] | Compound | Ratio (Pseudomonas aeruginosa [2]) | Ratio (Escherichia coli [5]) | Ratio (Staphylococcus aureus [7]) | IC50 [8] [µg/mL]
1 | 16 | 8 | 16 | 8 | 27.4 | 16 | 32 |  |  | Ac-KVLGRLVKVLARLV-NH2 | 2 | 2 | 2 | 
2 | 64 (≈ 39.3 µM) | 8 (≈ 4.91 µM) | 32 (≈ 19.6 µM) | 4 (≈ 2.46 µM) | 27.9 | 32 (≈ 19.6 µM) | 64 (≈ 39.3 µM) |  |  | CC(=O)N[C@@H](CCCCN)C(=O)N[C@H](C(=O)N[C@@H](CC(C)C)C(=O)NCC(=O)N[C@@H](CCCNC(=N)N)C(=O)N[C@@H](CC(C)C)C(=O)N[C@H](C(=O)N[C@@H](CCCCN)C(=O)N[C@@]1(C)CCC/C=C\CCC[C@@](C)(C(=O)N[C@H](C(N)=O)C(C)C)NC(=O)[C@H](CCCNC(=N)N)NC(=O)CNC(=O)[C@H](CC(C)C)NC1=O)C(C)C)C(C)C (Ac-KVLGRLVK[S5]LGR[S5]V-NH2; staple (Z) 9-13) |  |  |  | 
3 | > 64 | > 64 | > 64 | > 64 | 22 | > 64 | 64 |  |  | Ac-KVLGRLVKVAGRLV-NH2 |  |  |  | 
4 | > 64 | 16 | > 64 | 64 | 27.8 | > 64 | > 64 |  |  | Ac-AVLGRLVKVLGRLV-NH2 |  |  |  | 
5 | 32 (≈ 19.6 µM) | 8 (≈ 4.91 µM) | 16 (≈ 9.82 µM) | 4 (≈ 2.46 µM) | 27.3 | 16 (≈ 9.82 µM) | 32 (≈ 19.6 µM) | 100 |  | CC(=O)N[C@@H](CCCCN)C(=O)N[C@@]1(C)CCC/C=C\CCC[C@@](C)(C(=O)N[C@H](C(=O)N[C@@H](CCCCN)C(=O)N[C@H](C(=O)N[C@@H](CC(C)C)C(=O)NCC(=O)N[C@@H](CCCNC(=N)N)C(=O)N[C@@H](CC(C)C)C(=O)N[C@H](C(N)=O)C(C)C)C(C)C)C(C)C)NC(=O)[C@H](CCCNC(=N)N)NC(=O)CNC(=O)[C@H](CC(C)C)NC1=O (Ac-K[S5]LGR[S5]VKVLGRLV-NH2; staple (Z) 2-6) |  |  |  | 4.11 (≈ 2.52 µM)
6 | 64 | 32 | 8 | 64 | 24.5 | 32 | 16 |  |  | Ac-KVLGRLAKVLGRLV-NH2 |  |  |  | 
7 | 32 | 32 | 8 | 64 | 24.4 | 16 | 16 |  |  | Ac-KALGRLVKVLGRLV-NH2 |  |  |  | 
8 | 64 | 64 | 16 | > 64 | 24.2 | 32 | 32 |  |  | Ac-KVLGRLVKVLGRLA-NH2 |  |  |  | 
9 | 64 | 16 | 64 | 64 | 27.4 | > 64 | > 64 |  |  | Ac-KVLGRLVAVLGRLV-NH2 |  |  |  | 
10 | > 64 | 32 | > 64 | 16 | 27 | > 64 | > 64 |  |  | Ac-KVLGRLVKVLGALV-NH2 |  |  |  | 
11 | 32 | 8 | 32 | 16 | 28.4 | 32 | 64 |  |  | Ac-KVLGALVKVLGRLV-NH2 |  |  |  | 
12 | > 64 | > 64 | > 64 | > 64 | 22.7 | 64 | 32 |  |  | Ac-KVLGRLVKVLGRAV-NH2 |  |  |  | 
13 | > 64 | 16 (≈ 9.49 µM) | > 64 | 32 (≈ 19 µM) | 30.6 | > 64 | > 64 |  |  | CC(=O)N[C@@H](CCCCN)C(=O)N[C@H](C(=O)N[C@@H](CC(C)C)C(=O)NCC(=O)N[C@@H](CCCNC(=N)N)C(=O)N[C@@H](CC(C)C)C(=O)N[C@@]1(C)CCC/C=C\CCC[C@@](C)(C(=O)N[C@@H](CCCNC(=N)N)C(=O)N[C@@H](CC(C)C)C(=O)N[C@H](C(N)=O)C(C)C)NC(=O)[C@H](CC(C)C)NC(=O)[C@H](C(C)C)NC(=O)[C@H](CCCCN)NC1=O)C(C)C (Ac-KVLGRL[S5]KVL[S5]RLV-NH2; staple (Z) 7-11) |  |  |  | 
14 | 16 | 16 | 32 | 32 | 25.1 | 16 | 32 | 100 |  | Ac-KVLGRLVKVLGRLV-NH2 |  |  |  | 3.7
15 | > 64 | 4 (≈ 2.52 µM) | 64 (≈ 40.3 µM) | 4 (≈ 2.52 µM) | 30.8 | 64 (≈ 40.3 µM) | > 64 |  |  | CC(=O)N[C@@H](CCCCN)C(=O)N[C@H](C(=O)N[C@@H](CC(C)C)C(=O)NCC(=O)N[C@@]1(C)CCC/C=C\CCC[C@@](C)(C(=O)N[C@@H](CC(C)C)C(=O)NCC(=O)N[C@@H](CCCNC(=N)N)C(=O)N[C@@H](CC(C)C)C(=O)N[C@H](C(=O)O)C(C)C)NC(=O)[C@H](CCCCN)NC(=O)[C@H](C(C)C)NC(=O)[C@H](CC(C)C)NC1=O)C(C)C (Ac-KVLG[S5]LVK[S5]LGRLV-OH; staple (Z) 5-9) |  |  |  | 
16 | > 64 | 4 (≈ 2.46 µM) | 64 (≈ 39.3 µM) | 16 (≈ 9.82 µM) | 27.1 | 64 (≈ 39.3 µM) | > 64 |  |  | CC(=O)N[C@@H](CCCCN)C(=O)N[C@H](C(=O)N[C@@]1(C)CCC/C=C\CCC[C@@](C)(C(=O)N[C@@H](CCCCN)C(=O)N[C@H](C(=O)N[C@@H](CC(C)C)C(=O)NCC(=O)N[C@@H](CCCNC(=N)N)C(=O)N[C@@H](CC(C)C)C(=O)N[C@H](C(N)=O)C(C)C)C(C)C)NC(=O)[C@H](CC(C)C)NC(=O)[C@H](CCCNC(=N)N)NC(=O)CNC1=O)C(C)C (Ac-KV[S5]GRL[S5]KVLGRLV-NH2; staple (Z) 3-7) |  |  |  | 
17 | > 64 | > 64 | 64 | > 64 | 22.4 | > 64 | 64 |  |  | Ac-KVAGRLVKVLGRLV-NH2 |  |  |  | 
18 | 64 | 4 | 32 | 32 | 26.8 | 32 | 64 |  |  | Ac-KVLARLVKVLGRLV-NH2 |  |  |  | 
19 | 64 (≈ 39.6 µM) | 2 (≈ 1.24 µM) | 32 (≈ 19.8 µM) | 4 (≈ 2.48 µM) | 26.5 | 16 (≈ 9.91 µM) | 64 (≈ 39.6 µM) |  | > 70 | CC(=O)N[C@@H](CCCCN)C(=O)N[C@H](C(=O)N[C@@H](CC(C)C)C(=O)NCC(=O)N[C@@H](CCCNC(=N)N)C(=O)N[C@@]1(C)CCC/C=C\CCC[C@@](C)(C(=O)NCC(=O)N[C@@H](CCCNC(=N)N)C(=O)N[C@@H](CC(C)C)C(=O)N[C@H](C(N)=O)C(C)C)NC(=O)[C@H](C(C)C)NC(=O)[C@H](CCCCN)NC(=O)[C@H](C(C)C)NC1=O)C(C)C (Ac-KVLGR[S5]VKV[S5]GRLV-NH2; staple (Z) 6-10) |  |  |  | 2.95 (≈ 1.83 µM)
20 | > 64 | > 64 | > 64 | > 64 | 25.2 | > 64 | 64 |  |  | Ac-KVLGRLVKALGRLV-NH2 |  |  |  | 
21 | > 64 | > 64 | > 64 | > 64 | 22.3 | > 64 | 64 |  |  | Ac-KVLGRAVKVLGRLV-NH2 |  |  |  | 
22 | 64 (≈ 39.3 µM) | 4 (≈ 2.46 µM) | 32 (≈ 19.6 µM) | 8 (≈ 4.91 µM) | 28.3 | 32 (≈ 19.6 µM) | 64 (≈ 39.3 µM) |  |  | CC(=O)N[C@@H](CCCCN)C(=O)N[C@H](C(=O)N[C@@H](CC(C)C)C(=O)NCC(=O)N[C@@H](CCCNC(=N)N)C(=O)N[C@@H](CC(C)C)C(=O)N[C@H](C(=O)N[C@@H](CCCCN)C(=O)N[C@H](C(=O)N[C@@]1(C)CCC/C=C\CCC[C@@](C)(C(N)=O)NC(=O)[C@H](CC(C)C)NC(=O)[C@H](CCCNC(=N)N)NC(=O)CNC1=O)C(C)C)C(C)C)C(C)C (Ac-KVLGRLVKV[S5]GRL[S5]-NH2; staple (Z) 10-14) |  |  |  | 
